Test results reported in patent US20060205673A1, “2-Amino-3-hydroxy-4-tert-leucyl-amino-5-phenyl-pentanoic acid amide derivatives” (priority 2000, published 2006).

molecular target: T1, purified human placenta 20S proteasome (Homo sapiens, UniProt P28074); assay: Inhibition of the chymotrypsin-like activity of the 20S proteasome (Suc-LLVY-AMC hydrolysis); format: biochemical; conditions: Suc-LLVY-AMC substrate, 60 min preincubation at room temperature, Table 1
T1 construct: 1 μl purified human placenta 20S proteasome; tissue Diabetes Forschungsinstitut, Düsseldorf, Germany; host or cells: human placenta
Text: It is based on the hydrolysis of the fluorogenic peptide Suc-LLVY-AMC (Succinyl-leucine-leucine-valine-tyrosine-7-amino-4-methyl-coumarin), which is cleaved exclusively at the Y-AMC bond by the 20S proteasome. Hydrolysis of this peptide is accompanied by an increase in fluorescence intensity [λex (excitation wavelength): 355 nm; λem (emission wavelength): 460 nm] due to release of the internally quenched […] fluorescence that accompanies diffusion apart of the hydrolysis product Suc-LLVY.
2 μl of a 1 mM solution of a test compound in DMSO (dimethylsulfoxide, 20 μM final concentration in the well) are preincubated for 60 min at room temperature in black 96-well microtiter plates together with a mixture of 1 μl purified human placenta 20S proteasome (Diabetes Forschungsinstitut, Düsseldorf, Germany; about 100 ng proteasome, depending on the proteasome preparation) and 47 μl buffer-Ca [5 mM CaCl2, 20 mM Tris/HCl (Tris-(hydroxymethyl)-amino-methane hydrochloride) pH 8.0]. 3 μl of a 2.67 mM solution of Suc-LLVY-AMC (Bachem, Switzerland) in DMSO (80 μM final concentration in the well) and 47 μl buffer-Ca are mixed and added. The resulting mixture is incubated for 3-24 h at 37° C. If desired, proteolysis of the substrate can be stopped by addition of 50 μl stop solution (100 mM monochloroacetic acid, 130 mM NaOH, 100 mM acetic acid, pH=4.3). The fluorescence is monitored with a FLUOROSKAN ASCENT™ microtiter plate reader.
To each measure series two control experiments have to be carried out:
1.) 0% value: 2 μl DMSO are used in the above described assay instead of 2 μl of a 1 mM solution of a test compound in DMSO and 48 μl buffer-Ca instead of a mixture of 47 μl buffer-Ca and 1 μl purified proteasome.
2.) 100% value: in the above described assay 2 μl DMSO are used instead of 2 μl of a 1 mM solution of the test compound in DMSO.
The IC50 value is defined as that concentration of a compound at which the remaining activity is 50%.

SMILES | IC50 [nM]
COc1ccc(CNC(=O)[C@@H](NC(=O)[C@H](NCc2cccc3ccccc23)[C@H](O)[C@H](Cc2ccccc2)NC(=O)[C@@H](NC(=O)OCc2ccccc2)C(C)(C)C)C(C)C)c(O)c1 [Example 1, ((S)-1-{(1S,2R,3R)-1-Benzyl-2-hydroxy-3-[(S)-1-(2-hydroxy-4-methoxy-benzylcarbamoyl)-2-methyl-propylcarbamoyl]-3-[(naphthalen-1-ylmethyl)-amino]-propylcarbamoyl}-2,2-dimethyl-propyl)-carbamic acid benzyl ester] | 260
COc1ccc(CNC(=O)[C@@H](NC(=O)[C@H](NCc2ccc(N(C)C)cc2)[C@H](O)[C@H](Cc2ccccc2)NC(=O)[C@@H](NC(=O)OCc2ccccc2)C(C)(C)C)C(C)C)c(O)c1 [Example 2, ((S)-1-{(1S,2R,3R)-1-Benzyl-3-(4-dimethylamino-benzylamino)-2-hydroxy-3-[(S)-1-(2-hydroxy-4-methoxy-benzylcarbamoyl)-2-methyl-propylcarbamoyl]-propylcarbamoyl}-2,2-dimethyl-propyl)-carbamic acid benzyl ester] | 600
COc1ccc(CN[C@@H](C(=O)N[C@H](C(=O)NCc2cc(Br)ccc2O)C(C)C)[C@H](O)[C@H](Cc2ccccc2)NC(=O)[C@@H](NC(=O)OCc2ccccc2)C(C)(C)C)cc1 [Example 3, {(S)-1-[(1S,2R,3R)-1-Benzyl-3-[(S)-1-(5-bromo-2-hydroxy-benzyl-carbamoyl)-2-methyl-propylcarbamoyl]-2-hydroxy-3-(4-methoxy-benzylamino)-propylcarbamoyl]-2,2-dimethyl-propyl}-carbamic acid benzyl ester] | 800
COc1cccc(CN[C@@H](C(=O)N[C@H](C(=O)NCc2ccc(OC)cc2O)C(C)C)[C@H](O)[C@H](Cc2ccccc2)NC(=O)[C@@H](NC(=O)OCc2ccccc2)C(C)(C)C)c1 [Example 4, {(S)-1-[(1S,2R,3R)-1-Benzyl-2-hydroxy-3-[(S)-1-(2-hydroxy-4-methoxy-benzylcarbamoyl)-2-methyl-propylcarbamoyl]-3-(3-methoxy-benzylamino)-propylcarbamoyl]-2,2-dimethyl-propyl}-carbamic acid benzyl ester] | 1500
COc1ccc(CNC(=O)[C@@H](NC(=O)[C@H](NCc2ccc(OC)cc2OC)[C@H](O)[C@H](Cc2ccccc2)NC(=O)[C@@H](NC(=O)OCc2ccccc2)C(C)(C)C)C(C)C)c(O)c1 [Example 5, ((S)-1-{(1S,2R,3R)-1-Benzyl-3-(2,4-dimethoxy-benzylamino)-2-hydroxy-3-[(S)-1-(2-hydroxy-4-methoxy-benzylcarbamoyl)-2-methyl-propylcarbamoyl]-propylcarbamoyl}-2,2-dimethyl-propyl)-carbamic acid benzyl ester] | 1600
COc1ccc(CNC(=O)[C@@H](NC(=O)[C@H](NCc2cc(OC)c(OC)c(OC)c2)[C@H](O)[C@H](Cc2ccccc2)NC(=O)[C@@H](NC(=O)OCc2ccccc2)C(C)(C)C)C(C)C)c(O)c1 [Example 6, {(S)-1-[(1S,2R,3R)-1-Benzyl-2-hydroxy-3-[(S)-1-(2-hydroxy-4-methoxy-benzylcarbamoyl)-2-methyl-propylcarbamoyl]-3-(3,4,5-trimethoxy-benzylamino)-propylcarbamoyl]-2,2-dimethyl-propyl}-carbamic acid benzyl ester] | 50
COc1ccc(CNC(=O)[C@@H](NC(=O)[C@H](NCc2ccc(OC)c(OC)c2OC)[C@H](O)[C@H](Cc2ccccc2)NC(=O)[C@@H](NC(=O)OCc2ccccc2)C(C)(C)C)C(C)C)c(O)c1 [Example 7, {(S)-1-[(1S,2R,3R)-1-Benzyl-2-hydroxy-3-[(S)-1-(2-hydroxy-4-methoxy-benzylcarbamoyl)-2-methyl-propylcarbamoyl]-3-(2,3,4-trimethoxy-benzylamino) -propylcarbamoyl]-2,2-dimethyl-propyl}-carbamic acid benzyl ester] | 100
COc1ccc(CNC(=O)[C@@H](NC(=O)[C@H](NCc2ccc(OC)c(OC)c2)[C@H](O)[C@H](Cc2ccccc2)NC(=O)[C@@H](NC(=O)OCc2ccccc2)C(C)(C)C)C(C)C)c(O)c1 [Example 8, ((S)-1-{(1S,2R,3R)-1-Benzyl-3-(3,4-dimethoxy-benzylamino)-2-hydroxy-3-[(S)-1-(2-hydroxy-4-methoxy-benzylcarbamoyl)-2-methyl-propylcarbamoyl]-propylcarbamoyl}-2,2-dimethyl-propyl)-carbamic acid benzyl ester] | 150
COc1cc(CN[C@@H](C(=O)N[C@H](C(=O)NCc2ccc(OC)cc2O)C(C)C)[C@H](O)[C@H](Cc2ccccc2)NC(=O)[C@@H](NC(=O)OCc2ccccc2)C(C)(C)C)cc(OC)c1 [Example 9, ((S)-1-{(1S,2R,3R)-1-Benzyl-3-(3,5-dimethoxy-benzylamino)-2-hydroxy-3[(S)-1-(2-hydroxy-4-methoxy-benzylcarbamoyl)-2-methyl-propylcarbamoyl]-propylcarbamoyl}-2,2-dimethyl-propyl)-carbamic acid benzyl ester] | 190
COc1ccc(CNC(=O)[C@@H](NC(=O)[C@H](NCc2cc(OC)c(OC)cc2OC)[C@H](O)[C@H](Cc2ccccc2)NC(=O)[C@@H](NC(=O)OCc2ccccc2)C(C)(C)C)C(C)C)c(O)c1 [Example 10, {(S)-1-[(1S,2R,3R)-1-Benzyl-2-hydroxy-3-[(S)-1-(2-hydroxy-4-methoxy-benzylcarbamoyl)-2-methyl-propylcarbamoyl]-3-(2,4,5-trimethoxy-benzylamino)-propylcarbamoyl]-2,2-dimethyl-propyl}-carbamic acid benzyl ester] | 200
COc1ccc(CNC(=O)[C@@H](NC(=O)[C@H](NCc2cc(OC)c(OC)c(OC)c2)[C@H](O)[C@H](Cc2ccccc2)NC(=O)[C@@H](NC(=O)OC(C)(C)C)C(C)(C)C)C(C)C)c(O)c1 [Example 11, {(S)-1-[(1S,2R,3R)-1-Benzyl-2-hydroxy-3-[(S)-1-(2-hydroxy-4-methoxy-benzylcarbamoyl)-2-methyl-propylcarbamoyl]-3-(3,4,5-trimethoxy-benzylamino)-propylcarbamoyl]-2,2-dimethyl-propyl}-carbamic acid tert-butyl ester] | 1040
COc1ccc(CNC(=O)[C@@H](NC(=O)[C@H](NCc2cc(OC)c(OC)c(OC)c2)[C@H](O)[C@H](Cc2ccccc2)NC(=O)[C@@H](NC(=O)Cc2cccc3ccccc23)C(C)(C)C)C(C)C)c(O)c1 [Example 12, (2R,3R,4S)-4-[(S)-3,3-Dimethyl-2-(2-naphthalen-1-yl-acetylamino)-butyrylamino]-3-hydroxy-5-phenyl-2-(3,4,5-trimethoxy-benzylamino)-pentanoic acid [(S)-1-(2-hydroxy-4-methoxy-benzylcarbamoyl)-2-methyl-propyl]-amide] | 11
COc1ccc(CNC(=O)[C@@H](NC(=O)[C@H](NCc2ccc(OC)c(OC)c2OC)[C@H](O)[C@H](Cc2ccccc2)NC(=O)[C@@H](NC(=O)Cc2cccc3ccccc23)C(C)(C)C)C(C)C)c(O)c1 [Example 13, (2R,3R,4S)-4-[(S)-3,3-Dimethyl-2-(2-naphthalen-1-yl-acetylamino)-butyrylamino]-3-hydroxy-5-phenyl-2-(2,3,4-trimethoxy-benzylamino)-pentanoic acid [(S)-1-(2-hydroxy-4-methoxy-benzylcarbamoyl)-2-methyl-propyl]-amide] | 18
